This is an account of results in ChEMBL document CHEMBL3507680, “University of Dundee, Gates Library screen for HepG2 cell viability”.

Each structure is given as a SMILES string.

A short description of this data set: Human HepG2 cell viability assay in 384 well format. The data set is classed as toxicity, cell-based. Further details: dose 125 nL, time 70.5 hour; cytotoxicity at 70.5 h: concentration not given beside the values. As to conditions: HepG2 cells, read-out: Inhibition.
Consider `COc1coc(CN2CCCC(CCc3ccc(F)c(F)c3)C2)cc1=O` (stereo not drawn), for which the cytotoxicity at 70.5 h amounted to 15.5%.
As for `Cc1cc(C(F)(F)F)cc(N2CCC3(CCC(=O)N(CCO)C3)CC2)n1`, the figure is -4.65%.
As for `Cc1ccc(-c2nnc(CN3CC[C@H](CO)[C@@H](O)C3)o2)n1C`, the figure is -2.96%.
The same measure for `CC(Cc1cnccn1)NC(=O)COc1ccc(F)cc1F` (stereo not drawn): 3.61%.
Turning to `CCc1cnc(N)nc1NCCn1cc(Cl)cn1`, the cytotoxicity at 70.5 h is -6.52%.
As for `COc1cccc(OC2CN(C(=O)Cn3nc4ccccc4n3)C2)c1`, the figure is -5.28%.
The same measure for `CN(CCC1CCOCC1)[C@@H]1c2ccccc2C2(CCNCC2)[C@H]1O`: -4.06%.
In the case of `NC(=O)C1CCN(CC(=O)NCCn2cc(Cl)cn2)CC1`, the cytotoxicity at 70.5 h stood at 13.2%.
The same measure for `O=C(c1ccccn1)N1C[C@@H]2CC[C@H](C1)N(C(=O)CCC1CCCC1)C2`: -1.69%; for `COc1ccc(OC)c(CNC2CCCc3nc(N(C)C)ncc32)c1` (stereo not drawn): -7.31%.
With `Nc1cc(C(=O)N2CCC3(CC2)Nc2ccccc2NC3=O)ccn1`, the cytotoxicity at 70.5 h is 19.6%.
`CCOc1ncccc1Cn1cc(-c2ccc(CO)o2)nn1`: the cytotoxicity at 70.5 h was -15.3%.
As for `COc1ccc(C(=O)NCC2CCCN(C3CCOCC3)C2)c(O)c1` (stereo not drawn), the figure is 23.3%; as for `COc1cccc(CCC2CCCN(Cc3ncc[nH]3)C2)c1` (stereo not drawn), 29.4%; as for `Cc1[nH]c2c(F)cccc2c1CC(=O)N1CCC(NS(C)(=O)=O)CC1`, -7.49%.
In the case of `CN1CC[C@H]2CN(C(=O)c3ccc4sc5c(c4c3)CCNC5=O)C[C@H]21`, the cytotoxicity at 70.5 h is -1.19%.
With `CCOc1ccccc1OCCN(C)Cc1nccn1C`, the cytotoxicity at 70.5 h is -5.37%.
With `CC(=O)N1CCC(C(=O)NC2CC(C)(C)Oc3cc(C)ccc32)CC1` (stereo not drawn), the cytotoxicity at 70.5 h was determined as 12.8%.
The same measure for `COCCc1noc(CNC(=O)C2CC(=O)N(C(C)(C)C)C2)n1` (stereo not drawn): -7.37%; for `Cc1cc(C2CCC2)nc(N(C)CCc2ccccn2)n1`: -5.51%.
The same measure for `O=C1OCCN1CC(=O)N1C[C@H]2CC[C@@H]1CN(Cc1cscn1)C2`: 27.8%; for `Cc1cc2n(n1)CCN(c1nc(N)nc3c1CCNCC3)C2`: -13.6%.
Consider `Cc1ccnc(NCCNC(=O)CCNC(=O)c2ccccc2F)c1`, for which the cytotoxicity at 70.5 h was 1.01%.
As for `CCCN(CCc1ccccc1)c1ncnc2oc(C)nc12`, the figure is -2.57%; as for `Cc1cccnc1CN1CCN(C(=O)CCn2ccccc2=O)CC1`, 0.0273%.
With `CNc1nc(C(=O)N2CCCN(c3ccnc(C)c3)CC2)cs1`, the cytotoxicity at 70.5 h is -5.86%.
As to `COCCN(Cc1sccc1C)c1nc(C)nc2sccc12`, the cytotoxicity at 70.5 h was -3.07%.
As for `COc1nc2c(cc1C(=O)N(C)Cc1noc3c1CCCC3)CCC2`, the figure is -0.83%; as for `CC(C1CCN(Cc2cnn(C)c2C2CC2)CC1)N1CCN(C)CC1` (stereo not drawn), -3.33%; as for `CNc1cc(C)nc(N2CCN(Cc3ccccc3)CC(O)C2)n1` (stereo not drawn), -0.369%.
The same measure for `c1nc2c(c(NC3COC4(CCCC4)C3)n1)CCNCC2` (stereo not drawn): -5.17%.
As for `CC(C)(N)C(=O)N1CCCC(C(=O)c2ccc(C(C)(C)C)cc2)C1` (stereo not drawn), the figure is -3.3%; as for `Cc1ccc(-c2ncc(C(=O)N3CCCN4CCC[C@H]4C3)c(O)n2)cc1`, 5.02%.
As for `COc1ccc(-c2cccc(-c3ccn(CCN(C)C)n3)c2)nn1`, the cytotoxicity at 70.5 h was -3.58%.
As for `N[C@H]1CC[C@@H](n2cc(C(=O)NC3COc4ccccc43)nn2)CC1` (stereo partly drawn), the figure is -0.524%; as for `c1cncc(Cc2nnc3n2CCN(CC2CCOC2)CC3)c1` (stereo not drawn), -10.7%.
As for `COCCN(C)C[C@H]1C[C@@H](CO)CN(C(=O)c2ccn(C)c(=O)c2)C1`, the figure is -8.04%; as for `c1cncc(OCc2nc(C3CC3)nn2-c2ccc3c(c2)OCCO3)c1`, 14.2%; as for `C[C@@H]1CN(C(=O)CCc2nncn2C)CC[C@@]1(O)C1CCC1`, -5.47%.
As to `N#Cc1ccnc(NCc2cc3n(n2)CCCN(C(=O)C2CCC2)C3)c1`, the cytotoxicity at 70.5 h was 1.71%.
As for `CCOCCC(=O)N1C[C@H]2CC[C@@H]1CN(c1ncccn1)C2`, the figure is -5.84%; as for `CC(C)N1CCN(C(=O)c2csc3nc(-c4ccc(Cl)cc4)cn23)CC1`, -16.3%.
As for `CCN(Cc1ccncc1)Cc1cn(-c2ccccc2)nn1`, the figure is -10.2%; as for `Cc1ccc(Cl)c(CN2CCC(c3nccn3C(C)C)CC2)c1F`, -1.48%.
As for `Cc1ccccc1N1CCCN(CC2(O)CCCNC2)CC1` (stereo not drawn), the figure is 20.3%; as for `OCC1COCCN(c2ncccc2C(F)(F)F)C1` (stereo not drawn), 3.25%; as for `COc1cccc2c1OCC(C(=O)N1CCC(N3CCSCC3)CC1)C2` (stereo not drawn), 4.8%.
Take `O=C(c1ccc2c(c1)CCO2)N1CCN(c2ccc(Cl)cn2)CC1`: the cytotoxicity at 70.5 h was -0.811%.
As for `Cc1cc(-c2cccc(-c3ccn(CCCO)n3)c2)nc(N(C)C)n1`, the figure is -5.08%; as for `CN1CCN([C@H]2CCN(C(=O)c3cc(Cl)cn3C)C[C@H]2CCCO)CC1`, -14.3%; as for `Cc1cccc(-c2nccn2C2CC(=O)N(C(C)C)C2)n1` (stereo not drawn), 0.181%.
The same measure for `CCN1CCCC1CN(Cc1ccoc1)CC1CCN(CCOC)CC1` (stereo not drawn): -3.24%; for `CN(CCO)Cc1nnc(C2CCN(C(=O)c3ccccc3)CC2)n1C`: 0.129%.
For the compound `Cc1cccc(CN2CCN(C(=O)[C@@H]3CSCN3C)CC2)c1`, the cytotoxicity at 70.5 h was -13.3%.
The same measure for `CC(C)CCC(=O)N1CCCC2(CCN(Cc3ccccc3C#N)C2)C1` (stereo not drawn): -5.13%; for `O=S1(=O)COCCN1Cc1ccc(F)cc1Cl`: -9.29%.
As for `Cc1cccc(C)c1-c1cc(NCCO)nc2[nH]ccc12`, the figure is -11.1%; as for `O=C(N[C@@H]1CCN(c2nc3ccccc3o2)C[C@H]1O)c1cnccn1`, -9.1%; as for `Cc1nnc(CN2CCN(C)C3(CCNC(=O)CC3)C2)s1` (stereo not drawn), 2.04%.
The same measure for `Cc1cc(=O)[nH]c(NCCNC(=O)CN2CCCCCC2)n1`: 15.9%; for `O=C(NC1CC1)C1CN(c2nc3ccccc3s2)CCN1` (stereo not drawn): -7.94%; for `CC(C)CCn1c(=O)n(CCn2cccc2)c2cc(C(=O)O)cnc21`: -7.02%.
Regarding `COCc1cc(N(C)CCc2c(C)n[nH]c2C)ncn1`, the cytotoxicity at 70.5 h worked out at 5.69%.
On to `COc1ccnc(CNc2nc(C)nc(C)c2C)c1`, for which the cytotoxicity at 70.5 h was determined as 3%.
As for `CSCC[C@H](N)C(=O)N1CC(Oc2ccccc2C)C1`, the figure is -3.44%; as for `CCN1CC(C(=O)NCCn2cccc2)CC1=O` (stereo not drawn), -4.38%; as for `Cc1cnn(C(C)C2CC2)c1NC(=O)c1ccc(Cn2cnnn2)cc1` (stereo not drawn), -10.2%.
In the case of `O=c1cnc2ccccc2n1CCCn1ccnc1`, the cytotoxicity at 70.5 h is -16.2%.
The same measure for `O=C(COc1cccnc1)NCc1nncn1C1CCCCC1`: -5.77%; for `COCCn1ccnc1C1CCCN(C(=O)c2ccncc2F)C1` (stereo not drawn): 11%; for `Cc1cnn(C2(C(=O)O)CCN(c3ccncc3F)CC2)c1`: -5.87%.
For the compound `CCc1ccc2occ(CC(=O)N3CCC4(CCCN(C)C4=O)C3)c2c1` (stereo not drawn), the cytotoxicity at 70.5 h was -9.34%.
As for `Clc1cccnc1N1CCC(C2CCN(Cc3cccnc3)CC2)C1` (stereo not drawn), the figure is 25.7%.
In the case of `Cc1nn(C)c2nc(N(CCN(C)C)C3CCCC3)sc12`, the cytotoxicity at 70.5 h came out at 2.63%.
The same measure for `O=C1CC(NCc2cccc(O)c2)CN1CCc1cccc(Cl)c1` (stereo not drawn): 14.8%; for `O=C(CCc1ccco1)N1CCC(Oc2ccccc2)(C(=O)O)CC1`: 2.91%; for `CCC(Nc1cccc(OC)c1)C(=O)NCc1nc(C)cc(=O)[nH]1` (stereo not drawn): -5.76%.
The same measure for `CCN(CC)Cc1cc(C(=O)N2CCC3(CCN(C)CC3)C2)c(C)o1`: -14.5%; for `Cc1[nH]ccc1C(=O)N[C@H]1CN(CCO)C[C@@H]1C1CC1`: -6.42%.
As for `CCc1cccc(OC2CN(C(=O)[C@@H](N)CCSC)C2)c1`, the figure is -1.91%.
On to `CC(C)c1cc(=O)[nH]c(-c2ccccc2CN2CCCC2C)n1` (stereo not drawn), for which the cytotoxicity at 70.5 h was -19.9%.
Turning to `Cc1ncc(CN2CCC(n3cc(-c4ccc(F)cc4)nn3)CC2)cn1`, the cytotoxicity at 70.5 h is -2.17%.
For `OCCc1ccccc1-n1ccnc1-c1cn(C2CCNCC2)nn1`, the cytotoxicity at 70.5 h is 27.2%.
The same measure for `Cc1nc(N)cc(N2CCCC(COc3cccc(F)c3)C2)n1` (stereo not drawn): -16.1%; for `Cn1ccc2c(-c3ccc(NCCO)nn3)ccnc21`: -9.8%.
The same measure for `CCOc1ccc(CC(=O)N2C[C@H](C3CC3)[C@@H](N)C2)cc1`: 37.4%; for `O=C(CCn1cc(Cl)cn1)N1CCC2(CC1)[C@H](O)C[C@@H]2OCCO`: -1.08%; for `CCC(CC)Cn1ncc(N2CCOCC2)cc1=O`: -1.42%.
As for `O=C(C1CC1)N1CCC(C(=O)N2CCC(c3ccc(F)cc3)C2)CC1` (stereo not drawn), the figure is 8.64%.
As for `O=C(NCc1ccc2c(c1)CCCO2)c1ccc(C2CCNC2)cc1` (stereo not drawn), the cytotoxicity at 70.5 h was -18%.
The same measure for `Cc1ccc(O)c(C(=O)N2CCC3(CCCNC3)C2)c1` (stereo not drawn): -7.79%; for `Cn1cccc1-c1cc(C(=O)N2CCCC2c2ccc(C(N)=O)s2)[nH]n1` (stereo not drawn): -2.9%; for `Cc1cc2ccccc2n1CCC(=O)NCc1ncc[nH]1`: -1.07%.
As for `CN(C)CC1(O)CCN(S(=O)(=O)c2ccc(F)cc2)C1` (stereo not drawn), the figure is 30.9%.
For `CN(C)CC1(O)CCN(S(=O)(=O)c2ccc(F)c(F)c2)C1` (stereo not drawn), the cytotoxicity at 70.5 h was found to be 32.6%.
As to `Cc1c(C2CCCN(C(=O)C3CC3)C2)n2c(nc1=O)CCC2` (stereo not drawn), the cytotoxicity at 70.5 h was -3.86%.
As for `Cc1ccc(S(=O)(=O)N2CCc3nc(C4CCNCC4)ncc3C2)cc1`, the figure is -8.7%.
As for `CCn1ncc(-c2nc3c[nH]n(CC)c-3n2)c1C`, the figure is 0.803%.
